Experimental data from patent US20240245711A1, “A 19-NOR C3,3-DISUBSTITUTED C21-N-PYRAZOLYL STEROID FOR THE TREATMENT OF MAJOR DEPRESSIVE DISORDER” (Sage Therapeutics, Inc., priority 2021, published 2024).

Test system: patients with MDD and metabolic comorbidities
Assay: Post hoc analysis of the Example 1 study: patients with MDD and metabolic comorbidities
Type: in vivo, human
Experimental: Patients with MDD who have metabolic comorbidities face additional adverse events associated with antidepressants (e.g., weight gain, metabolic abnormalities) and often respond poorly. This example presents results from a post hoc analysis of clinical study of Example 1 in patients with MDD and metabolic comorbidities.
The clinical study of Example 1 enrolled patients with MDD, aged 18-75 years, with HAMD-17 score ≥20 and a MADRS total score ≥28 to 1 of 2 cohorts: 30 mg Cohort and 50 mg Cohort. HAMD-17 responders (≥50% reduction from baseline) at Day 15 continued in study and were assessed for retreatment eligibility.
Patients with a metabolic comorbidity were identified by the following coded terms in patient history: obesity, hyperlipidemia, hypercholesterolemia, type-2 diabetes mellitus, type-1 diabetes mellitus, glucose tolerance impaired, hypertriglyceridemia, dyslipidemia, metabolic syndrome, and/or diabetic dyslipidemia.

[1] = Day 15 of first treatment cycle, metabolic comorbidities subpopulation
[2] = metabolic comorbidities subpopulation

C[C@@]1(O)CC[C@H]2[C@H](CC[C@@H]3[C@@H]2CC[C@]2(C)[C@@H](C(=O)Cn4cc(C#N)cn4)CC[C@@H]32)C1 [Compound (1), 1-(2-((3R,5R,8R,9R,10S,13S,14S,17S)-3-hydroxy-3,13-dimethylhexadecahydro-1H-cyclopenta[a]phenanthren-17-yl)-2-oxoethyl)-1H-pyrazole-4-carbonitrile]
Patients not requiring additional treatment courses during their time in the study (161/253 who responded to and completed the first treatment cycle): 55.9%
HAMD-17 remission rate [1]: 37.1%
HAMD-17 response rate [1]: 67.3%
Mean (SD) CFB in HAMD-17 [1]: −14.8 (7.10)
TEAE diarrhea [2]: 6.7%
TEAE dizziness [2]: 9.1%
TEAE dry mouth [2]: 5.5%
TEAE headache [2]: 14.2%
TEAE sedation [2]: 5.1%
TEAE somnolence [2]: 13.8%
TEAE upper respiratory infection [2]: 5.9%
TEAEs leading to discontinuation of study drug (metabolic comorbidities subpopulation (8/253)): 3.2%
TEAEs leading to withdrawal from the study (metabolic comorbidities subpopulation (11/253)): 4.3%
TEAEs leading to dose reduction (metabolic comorbidities subpopulation (19/253)): 7.5%
Share of patients with TEAEs that were mild/moderate (metabolic comorbidities subpopulation (148/167)): 88.6%
Patients with ≥1 TEAE over the study duration (metabolic comorbidities subpopulation (167/253)): 66.0%
Mean (range) number of total treatment courses (metabolic comorbidities subpopulation, first-cycle responders): 1.9 (1-5)
Tolerability (patients with MDD and metabolic comorbidities): generally well tolerated
